Reference: article PMC6315395, “New Lipophenol Antioxidants Reduce Oxidative Damage in Retina Pigment Epithelial Cells” (Antioxidants, 2018)

Columns and labels:
Abca4 −/− Rdh8 −/− mice = tested on: Abca4 −/− Rdh8 −/− mice; design: method as in PMID 27992460; details: treated orally for three months; cited from earlier work
[1] = tested on: porcine primary RPE cells; design: method as in PMID 27992460; details: at 20 µM; cited from earlier work
RPE cells = details: 100 µM; cited from earlier work
[2] = tested on: Balb-c male mice photoreceptors; design: method as in PMID 29541735; details: cited from earlier work
ARPE-19 cells [3] = assay: Protection against ROS production (DCFDA probe, H2O2 stress); format: cell-based, human; details: for IC50: H2O2 600 µM for 4 h, DCFDA, mean ± SD, n ≥ 3, read-out: ROS production IC50 (concentration needed to inhibit 50% of the ROS induced by H2O2)
Method: ROS activity was measured in ARPE-19 cells with dichlorofluorescein diacetate (DCFDA) reagent. DCFDA is deacetylated by cellular esterases to dichlorofluorescein (DCFH), which can then be oxidized by ROS into the fluorophore 2′,7′–dichlorofluorescein (DCF). ARPE-19 cells were plated into black, optically clear bottom 96-well plates (4 × 10^4 cells/well) and cultured for 24 h to reach confluence before the drug treatment. The cell cultures were incubated with 2 µM of DCFDA for 45 min in DMEM/F12 medium without phenol red + 1% FBS. The cells were rinsed and incubated with the medium containing lipophenols at different concentrations (0–80 µM) for 1 h. Then, H2O2 was added to a final concentration of 600 µM for 4 h, followed by the measurement of DCF production by fluorescence spectroscopy with excitation wavelength at 485 nm and emission wavelength at 535 nm. […] Control cells were incubated with DMSO (0.2%) ± DCFDA ± H2O2. The percentage of ROS produced was calculated as [(fluorescence of sample)/(fluorescence of control)] × 100%. The results are expressed in percentage of ROS produced normalized with control conditions in the absence of lipophenol and presence of stressor. When a dose-dependent inhibition was observed, IC50 was calculated.

[4] = Cytotoxicity of lipophenols (MTT cell viability, 24 h); format: cell-based, human; details: human, ARPE-19 cells; for CC50 at 24 h: serum free medium, 0–160 µM, MTT, mean ± SD, n ≥ 3, read-out: ARPE-19 CC50 (concentration of lipophenol killing 50% of ARPE-19 cells)
Method: (§1) Cell viability was determined by MTT colorimetric assay. The cells were incubated for 2 h with MTT reagent (0.5 mg/mL). During this incubation time, dehydrogenases of the living cells reduce the MTT to insoluble purple formazan. The absorbance at 570 nm and 655 nm of individual wells of the cell was measured using a microplate reader (BioRad 550, USA). […] The percentage of the viable cells was calculated as [(OD570 sample − OD655 sample)/(OD570 control − OD655 control)] × 100%.
(§2) ARPE-19 cells were plated into 96-well plates (4 × 10^4 cells/well) and cultured for 24 h to reach confluence before lipophenol treatment. The cell cultures were treated with serum free medium containing the lipophenols at different concentrations (0–160 µM) for 24 h. Control cells were incubated with DMSO (0.2%). The viability of the cells was determined using MTT colorimetric assay as described above and expressed in percentage of viable cells normalized with control conditions in the absence of lipophenols. When a dose-dependent toxicity was observed, CC50 was calculated.

ARPE-19 cells [5] = assay: as above; format: cell-based, human; details: for Toxicity in ARPE-19 cells (in words): tested 0–160 µM
Method: as §1, §2

ARPE-19 cells [6] = assay: Protection against photo-oxidized A2E toxicity (MTT cell viability); format: cell-based, human; details: for IC50: 1 h pre-treatment, A2E 20 µM 6 h, blue light 30 min, mean ± SD, n ≥ 3, read-out: Protection against A2E toxicity IC50 (concentration needed to inhibit 50% of the toxicity induced by photo-oxidized A2E); for Decrease of the toxic effect of A2E: at 8 µM; for Cells protected from photo-oxidized A2E: at higher concentrations; for Maximum cell viability under photo-oxidized A2E: between 20 and 40 µM; for Potency against photo-oxidized A2E relative to natural quercetin: ratio of IC50
Method: as §1
ARPE-19 cells were plated into 96-well plates (4 × 10^4 cells/well) and cultured for 24 h to reach confluence before lipophenol treatment. The cell cultures were treated with serum free DMEM/F12 medium without phenol red containing lipophenols at different concentrations (0–80 µM) for 1 h. Then A2E was added to a final concentration of 20 µM for 6 h before rinsing with medium. Control cells were incubated with DMSO (0.2%) with or without A2E. The cells were exposed to intense blue light (4600 LUX) for 30 min to induce phototoxicity of A2E and incubated at 37 °C. The cell viability was determined 16–20 h later using a MTT colorimetric assay. Results are expressed in percentage of viable cells normalized with control conditions in the absence of lipophenols and stressor. When a dose-dependent efficiency was observed, IC50 was calculated.

ARPE-19 cells [7] = tested on: ARPE-19 cells; design: method as in PMID 27659166; details: 60 µM, cells treated twice for 3 days before A2E stress; cited from earlier work
[8] = Homo sapiens, ARPE-19, 1 h pre-incubation

## CC(/C=C/C=C(C)/C=C/C(=O)O)=C\C=C\C=C(C)\C=C\C=C(C)\C=C\C(=O)O (stereo in doubt) [Norbixin]
Abca4 −/− Rdh8 −/− mice
  Effect on A2E in mice (in words): able to reduce A2E
[1]
  Protection against A2E illuminated: 90–100%

## O=c1c(O[C@@H]2OC[C@H](O)[C@H](O)[C@H]2O)c(-c2ccc(O)c(O)c2)oc2cc(O)cc(O)c12 [3-quercetin glycoside, Quercetin-3-O-α-L-arabinopyranoside]
RPE cells
  Cell viability of RPE cells: ~ 90%
[2]
  Protection of photoreceptors against blue light damages (in words): protect

## Oc1cc(O)c2c(c1)O[C@H](c1ccc(O)c(O)c1)[C@@H](O)C2 [(+)-catechin, reference compound]
ARPE-19 cells [3]; [8]
  IC50: 5.93 ± 0.06 µM
[4]
  CC50 at 24 h: > 160 µM
ARPE-19 cells [5]; 24 h
  Toxicity in ARPE-19 cells (in words): no apparent toxicity

## CCCCC/C=C\C/C=C\CCCCCCCC(=O)O[C@H]1Cc2c(O)cc(O)cc2O[C@@H]1c1ccc(O)c(O)c1 [Cat-3-LA (9), catechin-3-LA]
ARPE-19 cells [3]; [8]
  IC50: 10.6 ± 4.41 µM
[4]
  CC50 at 24 h: 149 ± 6.61 µM
ARPE-19 cells [5]; 24 h, MTT
  Concentration from which cytotoxicity on ARPE-19 starts: ≥ 80 µM

## CCCCC/C=C\C/C=C\CCCCCCCC(=O)Oc1cc(O)cc(O)c1 [Phloro-LA (3), Phloroglucinol-LA]
ARPE-19 cells [3]; [8]
  IC50: > 80 µM
ARPE-19 cells [3]; ratio of ROS IC50
  ROS scavenging potency relative to natural homologue (phloroglucinol): nine times less potent
[4]
  CC50 at 24 h: > 160 µM

## Oc1cc(O)cc(O)c1 [Phloroglucinol, phloroglucinol, reference compound]
ARPE-19 cells [3]; [8]
  IC50: 10.2 ± 3.44 µM
[4]
  CC50 at 24 h: > 160 µM

## CC/C=C\C/C=C\C/C=C\CCCCCCCC(=O)Oc1c(-c2ccc(O)c(O)c2)oc2cc(O)cc(O)c2c1=O [Quer-3-ALA (14), quercetin-3-ALA]
other
  melting point: 180 °C
ARPE-19 cells [3]; 1 h pre-incubation
  IC50: 61.7 ± 7.43 µM
ARPE-19 cells [3]; [8]
  IC50: ~60 µM
[4]
  CC50 at 24 h: 69.4 ± 3.46 µM

## CC/C=C\C/C=C\C/C=C\C/C=C\C/C=C\C/C=C\CCC(=O)Oc1c(-c2ccc(O)c(O)c2)oc2cc(O)cc(O)c2c1=O [Quer-3-DHA (15)]
ARPE-19 cells [3]; 1 h pre-incubation
  IC50: 59.4 ± 18.8 µM
ARPE-19 cells [3]; [8]
  IC50: ~60 µM
[4]
  CC50 at 24 h: 134 ± 8.09 µM
ARPE-19 cells [5]; 24 h
  Toxicity in ARPE-19 cells (in words): slight toxicity

## CCCCC/C=C\C/C=C\CCCCCCCC(=O)Oc1c(-c2ccc(O)c(O)c2)oc2cc(O)cc(O)c2c1=O [Quer-3-LA (13), quercetin-3-LA]
ARPE-19 cells [6]; Homo sapiens, ARPE-19
  IC50: 8.24 µM
ARPE-19 cells [6]
  Decrease of the toxic effect of A2E: 50%
  Cells protected from photo-oxidized A2E: up to 90%
  Maximum cell viability under photo-oxidized A2E: 88–89%
  Potency against photo-oxidized A2E relative to natural quercetin: three times more potent
ARPE-19 cells [3]; 1 h pre-incubation
  IC50: 52.2 ± 10.8 µM
ARPE-19 cells [3]; [8]
  IC50: ~60 µM
[4]
  CC50 at 24 h: > 160 µM
ARPE-19 cells [5]; at 80 µM, Figure 8, 100% = non-treated control cells
  Cell survival in cytotoxicity assay: 150%
ARPE-19 cells [5]; 24 h
  Toxicity in ARPE-19 cells (in words): no toxicity was observed up to 160 µM

## CC/C=C\C/C=C\C/C=C\CCCCCCCC(=O)Oc1cc(O)c2c(=O)c(O)c(-c3ccc(O)c(O)c3)oc2c1 [Quer-7-ALA (18), quercetin-7-ALA]
ARPE-19 cells [6]; Homo sapiens, ARPE-19
  IC50: 8.45 µM
ARPE-19 cells [6]
  Decrease of the toxic effect of A2E: 50%
  Cells protected from photo-oxidized A2E: up to 90%
  Maximum cell viability under photo-oxidized A2E: 88–89%
  Potency against photo-oxidized A2E relative to natural quercetin: three times more potent
other
  melting point: 235.8 °C
ARPE-19 cells [3]; [8]
  IC50: 9.44 ± 2.37 µM
ARPE-19 cells [3]; ratio of ROS IC50
  ROS scavenging potency relative to analogue 3-ALA: 6 times
[4]
  CC50 at 24 h: > 160 µM
[4]; up to 160 µM, Figure 8, 100% = non-treated control cells
  viability at 24 h: 128%

## O=c1c(O)c(-c2ccc(O)c(O)c2)oc2cc(O)cc(O)c12 [Quercetin, quercetin, reference compound]
ARPE-19 cells [6]; Homo sapiens, ARPE-19
  IC50: 23.9 µM
ARPE-19 cells [6]; Homo sapiens, ARPE-19, at 40 µM, read-out: Maximum cell viability under photo-oxidized A2E
  viability at 40 µM: 78%
ARPE-19 cells [3]; [8]
  IC50: 6.82 ± 0.73 µM
[4]
  CC50 at 24 h: 111 ± 4.92 µM
ARPE-19 cells [5]; 24 h
  Toxicity in ARPE-19 cells (in words): moderate toxicity

## CCCCC/C=C\C/C=C\CCCCCCCC(=O)Oc1ccc(/C=C/c2cc(O)cc(O)c2)cc1 [Resv-4′-LA (8), resveratrol-4′-LA]
ARPE-19 cells [3]; [8]
  IC50: > 80 µM
ARPE-19 cells [3]; at 80 µM, Figure S1
  ROS scavenged: 40%
[4]
  CC50 at 24 h: > 160 µM

## Oc1ccc(C=Cc2cc(O)cc(O)c2)cc1 [Resveratrol, 3,4′,5-trihydroxystilbene, reference compound]
ARPE-19 cells [3]; [8]
  IC50: 7.4 ± 0.51 µM
ARPE-19 cells [7]
  Protection against photo-oxidized A2E (in words, compared with 88–89% cell viability): Same level of protection
[4]
  CC50 at 24 h: > 160 µM

## Oc1cc(O)cc(/C=C/c2ccc(O)c(O)c2)c1 [piceatannol]
ARPE-19 cells [7]
  Protection against photo-oxidized A2E (in words, compared with 88–89% cell viability): Same level of protection
